{
  "source": "patent US6353019B1",
  "about": "“Macrocyclic lactones, compositions, and methods of use” (United States of America as represented by the Department …, priority 1997, dated 2002)",
  "key": {"SK-MEL-2": {"test_system": "SK-MEL-2", "test": "NCI 60 cell-line screen, SK-MEL-2 (Melanoma)", "type": "cell-based, human", "conditions": "averaged, quadruplicate testing, 48 h, SRB", "protocol": "(§1) The NCI screen consists of a panel of 60 different human tumor cell lines against which compounds are tested over a defined range of concentrations to determine the relative degree of growth inhibition or cytotoxicity against each cell line. The design and operation of the screen is such that for each compound tested, both the absolute and relative sensitivities of individual cell lines comprising the screen are sufficiently reproducible that a characteristic profile or “fingerprint” of cellular response is generated. Compounds which are active in the NCI screen show pronounced differential tumor growth-inhibitory and/or cytotoxic effects to the diverse cell lines comprising the 60 cell-line panel. The degree of differential response between the most and least sensitive lines typically may be relatively small (e.g., 2- to 10-fold), or occasionally as great as 3-4 orders of magnitude. […]\n(§2) In the screening assay, each agent is tested over a broad concentration range against every cell line in the panel. […] Test compounds are evaluated at five 10-fold dilutions. […] Optical densities are measured on automated plate readers, followed by computerized data acquisition, processing, storage, and availability for display and analysis. […]"}, "SK-MEL-28": {"test_system": "SK-MEL-28", "test": "NCI 60 cell-line screen, SK-MEL-28 (Melanoma)", "type": "cell-based, human", "conditions": "averaged, quadruplicate testing, 48 h, SRB", "protocol": "as §1, §2"}, "SK-MEL-5": {"test_system": "SK-MEL-5", "test": "NCI 60 cell-line screen, SK-MEL-5 (Melanoma)", "type": "cell-based, human", "conditions": "averaged, quadruplicate testing, 48 h, SRB", "protocol": "as §1, §2"}, "UACC-257": {"test_system": "UACC-257", "test": "NCI 60 cell-line screen, UACC-257 (Melanoma)", "type": "cell-based, human", "conditions": "averaged, quadruplicate testing, 48 h, SRB", "protocol": "as §1, §2"}, "UACC-62": {"test_system": "UACC-62", "test": "NCI 60 cell-line screen, UACC-62 (Melanoma)", "type": "cell-based, human", "conditions": "averaged, quadruplicate testing, 48 h, SRB", "protocol": "as §1, §2"}, "IGROVI": {"test_system": "IGROVI", "test": "NCI 60 cell-line screen, IGROVI (Ovary)", "type": "cell-based, human", "conditions": "averaged, quadruplicate testing, 48 h, SRB", "protocol": "as §1, §2"}, "OVCAR-3": {"test_system": "OVCAR-3", "test": "NCI 60 cell-line screen, OVCAR-3 (Ovary)", "type": "cell-based, human", "conditions": "averaged, quadruplicate testing, 48 h, SRB", "protocol": "as §1, §2"}, "OVCAR-4": {"test_system": "OVCAR-4", "test": "NCI 60 cell-line screen, OVCAR-4 (Ovary)", "type": "cell-based, human", "conditions": "averaged, quadruplicate testing, 48 h, SRB", "protocol": "as §1, §2"}, "OVCAR-5": {"test_system": "OVCAR-5", "test": "NCI 60 cell-line screen, OVCAR-5 (Ovary)", "type": "cell-based, human", "conditions": "averaged, quadruplicate testing, 48 h, SRB", "protocol": "as §1, §2"}, "OVCAR-8": {"test_system": "OVCAR-8", "test": "NCI 60 cell-line screen, OVCAR-8 (Ovary)", "type": "cell-based, human", "conditions": "averaged, quadruplicate testing, 48 h, SRB", "protocol": "as §1, §2"}, "SK-OV-3": {"test_system": "SK-OV-3", "test": "NCI 60 cell-line screen, SK-OV-3 (Ovary)", "type": "cell-based, human", "conditions": "averaged, quadruplicate testing, 48 h, SRB", "protocol": "as §1, §2"}, "786-0": {"test_system": "786-0", "test": "NCI 60 cell-line screen, 786-0 (Kidney)", "type": "cell-based, human", "conditions": "averaged, quadruplicate testing, 48 h, SRB", "protocol": "as §1, §2"}, "A498": {"test_system": "A498", "test": "NCI 60 cell-line screen, A498 (Kidney)", "type": "cell-based, human", "conditions": "averaged, quadruplicate testing, 48 h, SRB", "protocol": "as §1, §2"}, "ACHN": {"test_system": "ACHN", "test": "NCI 60 cell-line screen, ACHN (Kidney)", "type": "cell-based, human", "conditions": "averaged, quadruplicate testing, 48 h, SRB", "protocol": "as §1, §2"}, "CAKI-1": {"test_system": "CAKI-1", "test": "NCI 60 cell-line screen, CAKI-1 (Kidney)", "type": "cell-based, human", "conditions": "averaged, quadruplicate testing, 48 h, SRB", "protocol": "as §1, §2"}, "RXF-393": {"test_system": "RXF-393", "test": "NCI 60 cell-line screen, RXF-393 (Kidney)", "type": "cell-based, human", "conditions": "averaged, quadruplicate testing, 48 h, SRB", "protocol": "as §1, §2"}, "SN-12C": {"test_system": "SN-12C", "test": "NCI 60 cell-line screen, SN-12C (Kidney)", "type": "cell-based, human", "conditions": "averaged, quadruplicate testing, 48 h, SRB", "protocol": "as §1, §2"}, "TK-10": {"test_system": "TK-10", "test": "NCI 60 cell-line screen, TK-10 (Kidney)", "type": "cell-based, human", "conditions": "averaged, quadruplicate testing, 48 h, SRB", "protocol": "as §1, §2"}, "UO-31": {"test_system": "UO-31", "test": "NCI 60 cell-line screen, UO-31 (Kidney)", "type": "cell-based, human", "conditions": "averaged, quadruplicate testing, 48 h, SRB", "protocol": "as §1, §2"}, "PC-3": {"test_system": "PC-3", "test": "NCI 60 cell-line screen, PC-3 (Prostate)", "type": "cell-based, human", "conditions": "averaged, quadruplicate testing, 48 h, SRB", "protocol": "as §1, §2"}, "DU-145": {"test_system": "DU-145", "test": "NCI 60 cell-line screen, DU-145 (Prostate)", "type": "cell-based, human", "conditions": "averaged, quadruplicate testing, 48 h, SRB", "protocol": "as §1, §2"}, "MCF-7": {"test_system": "MCF-7", "test": "NCI 60 cell-line screen, MCF-7 (Breast)", "type": "cell-based, human", "conditions": "averaged, quadruplicate testing, 48 h, SRB", "protocol": "as §1, §2"}, "MCF-7-ADR-RES": {"test_system": "MCF-7-ADR-RES", "test": "NCI 60 cell-line screen, MCF-7-ADR-RES (Breast)", "type": "cell-based, human", "conditions": "averaged, quadruplicate testing, 48 h, SRB", "protocol": "as §1, §2"}, "MDA-MB-231/ATCC": {"test_system": "MDA-MB-231/ATCC", "test": "NCI 60 cell-line screen, MDA-MB-231/ATCC (Breast)", "type": "cell-based, human", "conditions": "averaged, quadruplicate testing, 48 h, SRB", "protocol": "as §1, §2"}, "HS-578T": {"test_system": "HS-578T", "test": "NCI 60 cell-line screen, HS-578T (Breast)", "type": "cell-based, human", "conditions": "averaged, quadruplicate testing, 48 h, SRB", "protocol": "as §1, §2"}, "MDA-MB-435": {"test_system": "MDA-MB-435", "test": "NCI 60 cell-line screen, MDA-MB-435 (Breast)", "type": "cell-based, human", "conditions": "averaged, quadruplicate testing, 48 h, SRB", "protocol": "as §1, §2"}, "MDA-N": {"test_system": "MDA-N", "test": "NCI 60 cell-line screen, MDA-N (Breast)", "type": "cell-based, human", "conditions": "averaged, quadruplicate testing, 48 h, SRB", "protocol": "as §1, §2"}, "BT-549": {"test_system": "BT-549", "test": "NCI 60 cell-line screen, BT-549 (Breast)", "type": "cell-based, human", "conditions": "averaged, quadruplicate testing, 48 h, SRB", "protocol": "as §1, §2"}, "T-47D": {"test_system": "T-47D", "test": "NCI 60 cell-line screen, T-47D (Breast)", "type": "cell-based, human", "conditions": "averaged, quadruplicate testing, 48 h, SRB", "protocol": "as §1, §2"}, "[1]": {"test_system": "panel of 60 different human tumor cell lines", "test": "NCI 60 cell-line human tumor screen, whole panel", "type": "cell-based", "protocol": "as §1, §2\nThree additional numbers are printed at the base of each of the three respective mean-graphs. […] The MG-MID is the calculated mean panel GI50, TGI, or LC50. […]"}, "[2]": {"test": "Stability of compounds and extracts in solvents and media", "type": "physicochemical", "source_text": "Therefore, all subsequent attempts at isolation avoided the use of chloroform or exposure of samples to CDCl3, and no further problems with decomposition or loss of bioactivity were encountered. Moreover, there was no indication of any instability of the pure isolated compounds in any of the other common organic solvents employed, nor in aqueous or biological media. Therefore, a typical isolation and purification of the salicylihalamides from the selected crude extract is as follows."}},
  "data": [
    {"substance": "salicylihalamide A", "values": [
      {"measurement": "negative log10 GI50", "setting": "SK-MEL-2", "value": 7.47},
      {"measurement": "negative log10 GI50", "setting": "SK-MEL-28", "value": 7.00},
      {"measurement": "negative log10 GI50", "setting": "SK-MEL-5", "value": 9.00},
      {"measurement": "negative log10 GI50", "setting": "UACC-257", "value": 8.47},
      {"measurement": "negative log10 GI50", "setting": "UACC-62", "value": 8.38},
      {"measurement": "negative log10 GI50", "setting": "IGROVI", "value": 7.89},
      {"measurement": "negative log10 GI50", "setting": "OVCAR-3", "value": 7.03},
      {"measurement": "negative log10 GI50", "setting": "OVCAR-4", "value": 5.30},
      {"measurement": "negative log10 GI50", "setting": "OVCAR-5", "value": 8.11},
      {"measurement": "negative log10 GI50", "setting": "OVCAR-8", "value": 8.43},
      {"measurement": "negative log10 GI50", "setting": "SK-OV-3", "value": 5.54},
      {"measurement": "negative log10 GI50", "setting": "786-0", "value": 7.92},
      {"measurement": "negative log10 GI50", "setting": "A498", "value": 6.55},
      {"measurement": "negative log10 GI50", "setting": "ACHN", "value": 8.01},
      {"measurement": "negative log10 GI50", "setting": "CAKI-1", "value": 8.96},
      {"measurement": "negative log10 GI50", "setting": "RXF-393", "value": 9.07},
      {"measurement": "negative log10 GI50", "setting": "SN-12C", "value": 7.77},
      {"measurement": "negative log10 GI50", "setting": "TK-10", "value": 5.74},
      {"measurement": "negative log10 GI50", "setting": "UO-31", "value": 8.31},
      {"measurement": "negative log10 GI50", "setting": "PC-3", "value": 7.51},
      {"measurement": "negative log10 GI50", "setting": "DU-145", "value": 8.26},
      {"measurement": "negative log10 GI50", "setting": "MCF-7", "value": 7.12},
      {"measurement": "negative log10 GI50", "setting": "MCF-7-ADR-RES", "value": 8.07},
      {"measurement": "negative log10 GI50", "setting": "MDA-MB-231/ATCC", "value": 6.92},
      {"measurement": "negative log10 GI50", "setting": "HS-578T", "value": 5.85},
      {"measurement": "negative log10 GI50", "setting": "MDA-MB-435", "value": 7.82},
      {"measurement": "negative log10 GI50", "setting": "MDA-N", "value": 8.00},
      {"measurement": "negative log10 GI50", "setting": "BT-549", "value": 9.30},
      {"measurement": "negative log10 GI50", "setting": "T-47D", "value": 8.34},
      {"measurement": "GI50", "setting": "[1]; mean over the NCI 60 cell-line panel, read-out: mean panel GI50 concentration", "value": "~15", "unit": "nM"},
      {"measurement": "range of differential sensitivity among the 60 cell-lines", "setting": "[1]; most vs least sensitive lines of the NCI panel", "value": "greater than or equal to 10^3"},
      {"measurement": "stability in deuterated chloroform (CDCl3)", "setting": "[2]", "value": "sensitivity"}
    ]}
  ]
}
